The values that follow are results of earlier work, collected in patent US20030195171A1 (priority 2002, published 2003).

One series deals with T1, vitamin D receptor (Homo sapiens, UniProt P11473).
T1 sequence (P11473 1-427): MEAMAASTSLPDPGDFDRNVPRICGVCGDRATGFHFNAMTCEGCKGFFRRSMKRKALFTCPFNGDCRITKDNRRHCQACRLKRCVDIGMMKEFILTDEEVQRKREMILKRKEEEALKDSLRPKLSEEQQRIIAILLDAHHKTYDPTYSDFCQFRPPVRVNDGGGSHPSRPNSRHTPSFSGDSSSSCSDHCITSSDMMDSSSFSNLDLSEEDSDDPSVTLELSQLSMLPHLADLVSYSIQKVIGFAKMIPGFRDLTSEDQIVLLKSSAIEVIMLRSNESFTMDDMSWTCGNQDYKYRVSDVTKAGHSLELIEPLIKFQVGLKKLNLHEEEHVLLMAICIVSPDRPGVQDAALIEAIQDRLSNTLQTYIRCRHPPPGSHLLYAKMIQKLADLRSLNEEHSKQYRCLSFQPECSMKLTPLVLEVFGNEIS
The conditions noted are these: relative to 1α,25-dihydroxy-cholecalciferol.

The conditions of series [1]: compared to placebo.

For `C=C1CC[C@H](O)C/C1=C/C=C1\CCC[C@]2(C)[C@@H]([C@H](C)CCCC(C)(C)O)CC[C@@H]12` [25-hydroxy-cholecalciferol], the “Intrinsic activity, fold lower than that of 1α,25-dihydroxy-cholecalciferol” value at vitamin D receptor is reported as “about 100 fold”. Consider `NCCCC(O)(P(=O)(O)O)P(=O)(O)O` [alendronate, 4-Amino-1-hydroxybutylidene-1,1-bisphosphonic acid monosodium trihydrate], for which the “Decrease in the risk of vertebral fractures” value in series [1] (administered over a substantial period of time) is listed as “at least 40%”. In addition, in series [1] (total number of vertebral fractures), the “Reduction in vertebral fracture rate per 100 patients” value is given as “at least 50%”.
